Tests used:
[1] = target: T1, glutathione S-transferase (GST) activity / GSTP1 (Homo sapiens, UniProt P09211); test: GST activity in PAECs; format: cell-based
T1 construct: endogenous in cells; host or cells: primary human PAECs (hypoxia or IL-6/sIL-6R+hypoxia)
Method: For hypoxia exposure, cells were plated in 6-well cell culture plates at 1×10^5 cells/well, grown for 24 hr and placed into a normobaric hypoxia chamber (1% O2) for 24 h under specific treatment conditions. Namely, for I-BET and siLGALS8 exposures, cells were either pre-treated with I-BET/vehicle control (VC) or transfected with siLgals8/Scr for 24 h. Then, they were cultured in basal media at 1% 02. After 24 h, caspase activity and mitochondrial superoxide levels were quantified. To detect activation status of pSTAT1/STAT1 by immunoblot, cells were exposed to 8 h of hypoxia.
(§1) In IL-6/sIL-6R+hypoxia experiments, a human recombinant IL-6/IL-6R alpha protein chimera (25 ng/ml, Millipore) was administered at 70-80% confluency for 48 h in complete media along with vehicle control (DMSO, Sigma-41639). BRD2889 (1 uM) vs. vehicle control were added, as indicated, and placed into a hypoxia chamber for 24 h. The hypoxia chamber (modular incubator chamber) was obtained from Billups-Rothenberg Inc. (Del Mar, Calif) and placed in regulated CO2 incubator at 37° C.

[2] = system: mitochondrial Complex I; test: Mitochondrial Complex I activity in PASMCs; format: cell-based, human; settings: IL-6/sIL-6R + hypoxia
Method: as §1
Mitochondria isolation: Mitochondrial fraction from cultured PAECs with drug and siGSTP1 using the Mammalian Mitochondria Isolation Kit for Tissue & Cultured Cells (Biovision, Inc.) according to the manufacturer's instructions.
Measurement of mitochondrial complex activities: Complex I activity of isolated mitochondria were measured using Complex I Enzyme Activity Microplate assay kit (Abcam, ab109721) according to the manufacturer's protocol. These enzymes were captured within the wells of the microplate coated by the corresponding complex enzyme antibody, and activities were detected colorimetrically.

T1 sequence (P09211 2-210 limits assumed): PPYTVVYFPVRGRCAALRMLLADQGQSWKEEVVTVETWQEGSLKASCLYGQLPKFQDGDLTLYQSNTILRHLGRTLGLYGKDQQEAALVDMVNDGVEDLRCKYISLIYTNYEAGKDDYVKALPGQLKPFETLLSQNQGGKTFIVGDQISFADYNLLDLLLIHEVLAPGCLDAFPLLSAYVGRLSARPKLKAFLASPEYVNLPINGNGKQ

Compound: COc1ccc(C#CC2CCCN(C(=O)/C=C/c3cc(OC)c(OC)c(OC)c3)C2=O)cc1 (stereo not drawn) [BRD2889]
- GSTP1 (GST) activity ([1]; PAECs, IL-6/sIL-6R + hypoxia, BRD2889 1 uM): reversed the increase
- GST enzyme activity ([1]; hypoxic PAECs): reduced the hypoxic increase
- mitochondrial Complex I activity [2]: did not affect

Source: patent US12599592B2, “Therapeutic small molecules for treatment of pulmonary hypertension” (UNIVERSITY OF PITTSBURGH—OF THE COMMONWEALTH SYSTEM OF …, priority 2020, dated 2026)
